# Patent US20250213593A1, “Use of Derivatives based on Sarsasapogenin Structure and Pharmaceutical Compositions thereof” (BEIJING PHYTOVENT PHARMACEUTICAL TECHNOLOGY CO., LTD., priority 2022, published 2025)
# Marks after values point to notes of the source that are not given here.
# How the values were obtained:
# hippocampal neurons = experiment: L-cysteine-induced neuronal excitotoxicity; type: cell-based, SD rats; conditions: for protective effects on L-Cystine (400 μM)-induced neuronal excitotoxicity: compound 1 μM, 24 h before inducer
# Description: Experimental and analytical method: before the experiment, a 24-well cell culture plate was pretreated with Poly-D-lysine and placed in a cell incubator at 37° C. and 5% CO2 overnight. SD rats, 18 days pregnant, were ordered, brains of fetal rats (E18-19) were dissected, and hippocampal neurons in the brains were subjected to primary culture in a neuronal medium using a 24-well plate, and then cultured by a serum-free medium. The hippocampal neurons were cultured in a cell incubator at 37° C., 5% CO2 for 19 days (DIV19), then added with a compound to be tested (a final concentration of 1 μM) and a positive control AP5 [(2R)-amino-5-phosphonopentanoic acid(phosphonatopentanoate)] (a final concentration of 100 μM), cultured for 24 h, and then added with L-Cystine (400 μM) and NaHCO3 (10 mM). After 18 h, Hoechst3342 (2.5 μg/ml) was added for cell staining. The cells were placed in the incubator and cultured for 15 min, and photographed using the high-content fluorescence microscope, wherein 6 random non-overlapping fields were photographed for each duplicate well, and the total number of neurons and the number of dead neurons were counted with software Image J. The obtained data was used to determine whether there was a difference between a drug treatment group and a control group.
# Compound treatment: 32 small molecule compounds in Embodiment 1 to Embodiment 19A were diluted with DMSO to a 1 mM mother solution; and 1 μL of mother solution was added to 1 ml of culture solution per well in a 24-well plate to a final concentration of 1 μM, wherein a positive control compound was […] of AP5 (100 mM mother solution), and a negative control was 1 μl of DMSO.
# [1] = tested on: mice with ulcerative colitis induced by 3.0% DSS; experiment: DSS mouse enteritis model; type: in vivo
# Description: 60 mice in good health were divided into 6 groups according to body weight, with 10 mice in each group: a normal control group, a model group, a positive drug group, and groups of different test products (Embodiment 13B, Embodiment 33, and Embodiment 34, at a dosage of 80 mpk each). In addition to the normal control group, the mice in other groups were administrated with a 3.0% DSS solution to drink freely, and consecutively modeled for 8 days. The normal control group was administrated with autoclaved filtered water to drink freely. The drug was administered on the day of modeling, and a test product was administered by oral gavage according to a designed dosage, once a day for 9 consecutive days. […] On the next day after the last administration, after deep anesthesia with CO2, cardiac blood and plasma were collected, and cryopreserved at −80° C. Subsequently, the abdominal cavity was dissected, the liver was removed and cryopreserved at −80° C. Finally, the entire colon tissue was removed, the colon length was measured, photographs were taken, and the colon content was washed with normal saline after dissection along the mesenteric side and weighed.
# [2] = tested on: transgenic neutrophil fluorescent zebrafishes; experiment: Anti-inflammatory effect on LPS-induced inflammatory zebrafish; type: in vivo; conditions: 80 μM; for Number of neutrophils (mean ± SE): 3 h, n = 10, model control 18, normal control 3
# Description: LPS was used to treat normal 3 dpf transgenic neutrophil fluorescent zebrafishes in a yolk sac injection, and a zebrafish inflammation model was established.
# Transgenic neutrophil fluorescent zebrafishes (3 dpf), well developed and consistent in stage on 3 days after fertilization, were picked under a microscope and placed in a six-well plate, with 30 zebrafishes being randomly picked for each well at a capacity of 3 mL in each well. A zebrafish inflammation model was established by administrating LPS in a yolk sac injection. “Embodiment 5” and “Embodiment 6” were respectively dissolved with water, wherein the concentrations were 0.28 μM, 0.83 μM and 2.5 μM, respectively. The concentration of indomethacin was 80 μM. Meanwhile, a normal control group (i.e., zebrafishes were treated with fish-farming water) and a model control group were set, and incubated in a 28° C. incubator for 3 h. 10 zebrafishes were randomly selected from each group, and observed and photographed under a fluorescence microscope, and the photos were saved. Nikon NIS-Elements D 3.10 advanced image processing software was used for image analysis, the number (N) of inflammatory neutrophils in zebrafish was calculated, and the statistical processing results were expressed as mean±SE. The statistical analysis results of the number of inflammatory neutrophils in zebrafish were used to evaluate whether “Embodiment 5” and “Embodiment 6” had significant anti-inflammatory effects on LPS-induced inflammatory zebrafish, respectively. A formula for calculating the anti-inflammatory effects of “Embodiment 5” and “Embodiment 6” was as follows: […]
# [3] = 80 mpk oral gavage once a day, 9 days
smiles,measurement,setting,value
"N[C@H](CCCP(=O)(O)O)C(=O)O [AP5, (2R)-amino-5-phosphonopentanoic acid(phosphonatopentanoate), reference compound]",protective effect on the neuronal excitotoxicity,hippocampal neurons; AP5 100 μM,very significant protective effect
same,proportion of dead cells,"hippocampal neurons; AP5 100 μM, L-Cystine 400 μM + NaHCO3 10 mM, without inducer 20.12%, DMSO 87.62%",27.58%
C[C@H]1CC[C@@]2(OC1)O[C@H]1C[C@H]3[C@@H]4CC[C@@H]5CC(NC(=O)CCN6CCN(C)CC6)CC[C@]5(C)[C@H]4CC[C@]3(C)[C@H]1[C@@H]2C (stereo partly drawn) [Embodiment 1],protective effects on L-Cystine (400 μM)-induced neuronal excitotoxicity,hippocampal neurons,protective effects
C[C@H]1CC[C@@]2(OC1)O[C@H]1C[C@H]3[C@@H]4CC[C@@H]5C[C@H](NC(=O)CCN(C)C)CC[C@]5(C)[C@H]4CC[C@]3(C)[C@H]1[C@@H]2C [Embodiment 4B],protective effects on L-Cystine (400 μM)-induced neuronal excitotoxicity,hippocampal neurons,protective effects
C[C@H]1CC[C@@]2(OC1)O[C@H]1C[C@H]3[C@@H]4CC[C@@H]5CC(NC(=O)CC(=O)N6CCNCC6)CC[C@]5(C)[C@H]4CC[C@]3(C)[C@H]1[C@@H]2C (stereo partly drawn) [Embodiment 10],protective effects on L-Cystine (400 μM)-induced neuronal excitotoxicity,hippocampal neurons,protective effects
CC(C)CN1CCN(C2CCN(C(=O)CC(=O)NC3CC[C@]4(C)C5CC[C@]6(C)[C@@H]7[C@H](C[C@H]6[C@@H]5CC[C@@H]4C3)O[C@]3(CC[C@H](C)CO3)[C@H]7C)CC2)CC1 (stereo partly drawn) [Embodiment 33],colon length,[1]; [3],could increase the weights and lengths of the colons
same,colon weight,[1]; [3],could increase the weights and lengths of the colons
same,general conditions of DSS colitis mice,[1]; [3],certain improvement effects
CC(C)N1CCC(N2CCN(C(=O)CC(=O)NC3CC[C@]4(C)C5CC[C@]6(C)[C@@H]7[C@H](C[C@H]6[C@@H]5CC[C@@H]4C3)O[C@]3(CC[C@H](C)CO3)[C@H]7C)CC2)CC1 (stereo partly drawn) [Embodiment 34],colon length,[1]; [3],could increase the weights and lengths of the colons
same,colon weight,[1]; [3],could increase the weights and lengths of the colons
same,general conditions of DSS colitis mice,[1]; [3],certain improvement effects
"O=C(O)c1cc(/N=N/c2ccc(S(=O)(=O)Nc3ccccn3)cc2)ccc1O [SASP, reference compound]",colon atrophy,[1]; 720 mg/kg positive drug,could inhibit colon atrophy
same,general conditions of DSS colitis mice,[1]; 720 mg/kg positive drug,certain improvement effects
"COc1ccc2c(c1)c(CC(=O)O)c(C)n2C(=O)c1ccc(Cl)cc1 [indomethacin, Indomethacin, reference compound]",Inflammation resolution (%) / anti-inflammatory effect,[2],67%
same,Number of neutrophils (mean ± SE),[2],6
same,Number of neutrophils (mean ± SE),[2]; listed as Indomethacin,6 ± 0.31
same,anti-inflammatory effect on inflammatory zebrafish (in words),[2]; P<0.001 vs model control,obvious anti-inflammatory effect
same,Inflammation resolution (%) / anti-inflammatory effect,[2]; listed as Indomethacin,67*** %
